In patent US7101915B1, “P-terphenyl compounds” (Shionogi & Co., Ltd., priority 1996, dated 2006):
In brackets after ≈: the same amount, converted by molar mass.

Columns and labels:
[1] = system: IgG2a production of mouse spleen lymphocytes; assay: Suppressive effect on antibody production of mouse spleen lymphocytes: IgG2a; assay type: cell-based, BALB/c (nu/nu) mice; conditions: LPS + IL-4, 10 days
Method: (§1) Experiment 6 Suppressive Effect on Antibody Production of Mouse Spleen Lymphocytes 1. Experimental Method 1) Animals
(§2) BALB/c (nu/nu) mice were bought from Japan SLC, Inc. (Shizuoka) and 7 weeks old-male mice were used.
(§3) RPMI medium (Nissui Pharmaceutical Co., Ltd.) containing 10% fetal bovine serum (HyClone Lab.) inactivated at 56° C. for 30 minutes, penicillin (100 units/ml) and streptomycin (100 μg/ml) (GIBCO) was used for experiments.
(§4) Each of the compounds was dissolved in dimethylsulfoxide (Nakaraitesk) at […] and diluted with the medium to adjust a final concentration to 0.1 μg/ml −10 μg/ml.
(§5) 4) Mouse Spleen Lymphocytes […]
(§6) In 96-well cultivating plate (Sumitomo Bakelite Company Limited) mouse spleen lymphocytes were inoculated 2×10^5 cells per well. […] After the cultivation for 10 days, the amount of the antibody in a supernatant was quantified by ELISA method.
(§7) 7) Quantification of the IgG1, IgG2a and IgM Antibodies
(§8) In 96-well plate 50 μl of 10 μg/ml Goat Anti-Mouse Ig (IgM+G+A, H+ L) (Southern Biotechnology, Birmingham) was added and the plate was coated at 4° C. overnight. […] After washing three times with PBST, 100 μl of culture supernatant which was diluted with PBS or 100 μl of an antibody standard solution (Mouse IgG1 standard, Mouse IgG2a standard, Mouse IgM standard, BETHYL Laboratories) of a pre-determined concentration was added and incubated for 1 hour. […]

[2] = system: IL-4 production of mouse T cell strain EL-4 (TPA); assay: Suppressive effect on the cytokine production of mouse T cell strain EL-4: IL-4; assay type: cell-based; conditions: EL-4, TPA 10 ng/ml, 24 hours, ELISA
[3] = system: IgE production of mouse spleen lymphocytes (lipopolysaccharide, IL-4); assay: Suppressive effect on antibody production of mouse spleen lymphocytes: IgE; assay type: cell-based, BALB/c (nu/nu) mice; conditions: LPS + IL-4, 10 days
Method: as §1, §2, §3, §4
4) Mouse Spleen Lymphocytes
A spleen of mouse was taken out and put in a cultivating schale which was filled with Hanks' solution. The spleen was crushed and the cells were pushed out from the organ and filtered through a metal mesh (200 mesh). After the collected cell suspension was washed by centrifugation with sterile Hanks' solution (Nissui Pharmaceutical Co., Ltd.), sterile distilled water was added. […]
as §6
(§9) 6) Quantification of the IgE Antibody
A commercial mouse IgE EIA kit (Yamasa Shoyu Co., Ltd.) was used for the quantification of the IgE. […]

[4] = system: IL-5 production of mouse T cell strain EL-4 (TPA); assay: Suppressive effect on the cytokine production of mouse T cell strain EL-4: IL-5; assay type: cell-based; conditions: EL-4, TPA 10 ng/ml, 24 hours, ELISA
[5] = system: IL-2 production of mouse T cell strain EL-4 (TPA); assay: Suppressive effect on the cytokine production of mouse T cell strain EL-4: IL-2; assay type: cell-based; conditions: EL-4, TPA 10 ng/ml, 24 hours, ELISA
[6] = system: IgG1 production of mouse spleen lymphocytes; assay: Suppressive effect on antibody production of mouse spleen lymphocytes: IgG1; assay type: cell-based, BALB/c (nu/nu) mice; conditions: LPS + IL-4, 10 days
Method: as §1, §2, §3, §4, §5, §6, §7, §8

[7] = system: IgM production of mouse spleen lymphocytes; assay: Suppressive effect on antibody production of mouse spleen lymphocytes: IgM; assay type: cell-based, BALB/c (nu/nu) mice; conditions: LPS + IL-4, 10 days
Method: as §1, §2, §3, §4, §5, §6, §7, §8

[8] = system: C3H/HeN mouse splenocytes stimulated with lipopolysaccharide (LPS); assay: Suppressive effect on mitogenic activity of mouse splenocytes in vitro, LPS as mitogen (MTT); assay type: cell-based; conditions: LPS 10 μg/ml as mitogen, 3 days
Method: (§10) Experiment 1 Suppressive Effect on a Mitogenic Activity of Mouse Splenocytes In Vitro
(§11) In 96-well microtiter plate 5×10^5 C3H/HeN mouse splenocytes suspended in 0.1 ml of 10% fetal bovine serum-fortified RPMI 1640 medium containing 2 mM of sodium bicarbonate, 50 units/ml of penicillin, 50 μg/ml of streptomycin and 5×10^−5 M of 2-mercaptoethanol were added. Then, 5 μg/ml of Concanavalin A (Con A) or 10 μg/ml of lipopolysaccharide (LPS) as a mitogen and the compound of a pre-determined concentration of the present invention were added to each well so that a final volume of each well reached 0.2 ml. Each compound of the present invention was dissolved in dimethylsulfoxide (DMSO) and diluted with the above RPMI 1640 medium to adjust the final concentration of 100 ng/ml or less. The splenocytes in the 96-well microtiter plate were cultivated at 37° C. for 3 days in an incubator keeping the humidity 100%, carbon dioxide 5% and air 95%. Then, 25 μl of 6 mg/ml MTT [3-(4,5-dimethylthiazol-2-yl)-2,5-diphenyltetrazolium bromide] (Sigma) was added to the each well and cultivated at 37° C. for 4 hours under the same conditions. After the cultivation, 50 μl of 0.02 N hydrochloric acid in 20% sodium dodecyl sulfate (SDS) was added to formazan generated and left at 37° C. for 24 hours for dissolving formazan. An absorption intensity (OD) of formazan generated in proportion to the number of living cells was measured with an immunoreader (InterMed) equipped with a 570 nm filter (The Journal of Immunological Method, 65, 55-63, 1983). The 50% inhibitory concentration of a cell proliferation (IC 50) was calculated from a correlation between the concentration of the compound of the present invention and the absorption intensity.

[9] = system: IgM production of human peripheral lymphocytes; assay: Suppressive effect on the antibody production of human lymphocytes: IgM; assay type: cell-based; conditions: 10 days, ELISA
Method: (§12) Experiment 5 Suppressive Effect on the Antibody Production of Human Lymphocytes
(§13) 1) Human Peripheral Blood
(§14) Human peripheral blood was drawn from healthy male adults by plastic syringes filled with heparin (final concentration 1.5%). Lymphocytes were collected immediately after blood was drawn.
(§15) RPMI medium (Nissui Pharmaceutical Co., Ltd.) containing 10% fetal bovine serum (HyClone Lab.) inactivated at 56° C. for 30 minutes, penicillin (100 units/ml) and streptomycin (100 μg/ml) (GIBCO) was used. […]
(§16) In 96-well cultivating plate (Sumitomo bakelite) the lymphocytes were inoculated 2×10^5 cells per well, and the compound, anti-human CD 40 antigen (Pharmingen, 2 μg/ml), human recombinant interleukin-4 (IL-4) (Genzyme, 0.1 μg/ml) and human recombinant interleukin-10 (IL-10) (Genzyme, 0.2 μg/ml) were added and cultivated at 37° C. under 5% of CO2 (0.2 ml/well). After the cultivation for 10 days, the amount of antibody in a supernatant was quantified by ELISA method.
(§17) 7) Quantification of the IgG and IgM Antibodies
(§18) ELISA method was used for the quantification. […] After washing three times with PBST, 100 μl of a sample diluted with PBS or 100 μl of human Plasma IgG standard solution or IgM standard solution (BioPur AG, Switzerland) of a pre-determined concentration was added and incubated at room temperature for 1 hour. […]

[10] = system: C3H/HeN mouse splenocytes stimulated with Concanavalin A (Con A); assay: Suppressive effect on mitogenic activity of mouse splenocytes in vitro, Con A as mitogen (MTT); assay type: cell-based; conditions: Con A 5 μg/ml as mitogen, 3 days
Method: as §10, §11

[11] = system: IgE antibody production of human peripheral lymphocytes (anti-human CD 40, IL-4, IL-10); assay: Suppressive effect on the antibody production of human lymphocytes: IgE; assay type: cell-based; conditions: 10 days, ELISA
Method: as §12, §13, §14
RPMI medium (Nissui Pharmaceutical Co., Ltd.) containing 10% fetal bovine serum (HyClone Lab.) inactivated at 56° C. for 30 minutes, penicillin (100 units/ml) and streptomycin (100 μg/ml) (GIBCO) was used.
After the compound (I-839) of the present invention was dissolved in dimethylsulfoxide (Nakaraitesk) at […], the solution was diluted with the medium to adjust a final concentration to be 0.01 μg/ml −10 μg/ml. […]
as §16, §9
A commercial kit MESACUP IgE test (Medical & Biological Laboratories Co., Ltd.) was used for the quantification of the IgE. […]

[12] = system: mouse thymoma strain EL4 cells; assay: Anti-proliferative activity on EL4 cells (MTT); assay type: cell-based; conditions: 3 days
Method: Experiment 2 Anti-Proliferative Activity on EL4 Cells
In 96-well microtiter plate 4×10^4/0.1 ml of mouse thymoma strain EL4 cells were added and 0.1 ml of the compound of the present invention was added to the mixture so that the concentration was in the range of 0-5,000 ng/ml. After the cultivation for 3 days, the IC50 was calculated by the MTT method as described in Experiment 1.

[13] = system: IgG production of human peripheral lymphocytes; assay: Suppressive effect on the antibody production of human lymphocytes: IgG; assay type: cell-based; conditions: 10 days, ELISA
Method: as §12, §13, §14, §15, §16, §17, §18

Row | IC50 IgG2a [1] [ng/mL] | IC50 IL-4 [2] [ng/mL] | IC50 IgE [3] [ng/mL] | IC50 IL-5 [4] [ng/mL] | IC50 IL-2 [5] [ng/mL] | IC50 IgG1 [6] [ng/mL] | IC50 IgM [7] [ng/mL] | IC50 IgM [9] [ng/mL] | IC50 IgE [11] [ng/mL] | EL-4 IC50 [12] [ng/mL] | IC50 IgG [13] [ng/mL] | Structure (SMILES) | LPS IC50 [8] [ng/mL] | ConA IC50 [10] [ng/mL]
1 | 4900 | 20 (≈ 49 nM) | 0.044 | 15 (≈ 36.7 nM) | 500 (≈ 1220 nM) | 2600 | 4200 |  |  |  |  | COc1cc(-c2ccc(OCC=C(C)C)c(F)c2)c(OC)cc1-c1ccc(O)cc1 [Compound I-73] |  | 
2 |  |  |  |  |  |  |  | >1 | <0.0001 | 0.8 | <0.0001 | COc1cc(-c2ccc(O)cc2)c(OC)c(O)c1-c1ccc(OCC=C(Cl)Cl)c(O)c1 [Compound I-121] | 1.2 | 0.8
